From patent US20120263794A1, “TREATMENT OF EYE DISEASES USING ENCAPSULATED CELLS ENCODING AND SECRETING A NEUROPROTECTIVE FACTOR AND/OR AN ANTI-ANGIOGENIC FACTOR” (BIOCOMPATIBLE UK LTD., priority 2009, published 2012)
Ends that are not written are not given here.

What was measured:
[1] = target: T1, DPP-IV (Homo sapiens, UniProt P27487); experiment: In vitro human plasma stability of GLP-1CM peptides; assay type: in vitro ADME; conditions: 20 ng/ml, 37° C., 5% CO2, 3 hours, in contrast to native GLP-1(7-37)
T1 construct: incubated at concentrations of 20 ng/ml with human plasma; from tissue; host or cells: human plasma
Description: Synthetic GLP-1 peptides (SEQ ID NO:1syn, SEQ ID SEQ ID NO:7rec, SEQ ID NO:8syn) were incubated at concentrations of 20 ng/ml with human plasma at 37° C. and 5% CO2 for 3 hours. Dipeptidylpeptidase activity of the plasma was inhibited by a DPP-IV inhibitor (#DPP4, Biotrend).

[2] = test system: Rin-5F cells; experiment: Anti-apoptotic efficacy, cycloheximid-induced apoptosis, AlamarBlue; assay type: cell-based, rat; conditions: 24 hours
Description: Apoptosis is induced in RIN-5F cells by addition of the protein biosynthesis inhibitor cycloheximid (CHX) in a final of 10 μg/ml and 100 μg/ml respectively.
40.000 Rin-5F cells were seeded per 96 well and cultivated for 2 days in RPMI supplemented with 1% L-Glutamin and 10% fetal calf serum. […] After 24 hours cell viability is quantified using AlamarBlue.

T1 sequence (P27487 whole entry): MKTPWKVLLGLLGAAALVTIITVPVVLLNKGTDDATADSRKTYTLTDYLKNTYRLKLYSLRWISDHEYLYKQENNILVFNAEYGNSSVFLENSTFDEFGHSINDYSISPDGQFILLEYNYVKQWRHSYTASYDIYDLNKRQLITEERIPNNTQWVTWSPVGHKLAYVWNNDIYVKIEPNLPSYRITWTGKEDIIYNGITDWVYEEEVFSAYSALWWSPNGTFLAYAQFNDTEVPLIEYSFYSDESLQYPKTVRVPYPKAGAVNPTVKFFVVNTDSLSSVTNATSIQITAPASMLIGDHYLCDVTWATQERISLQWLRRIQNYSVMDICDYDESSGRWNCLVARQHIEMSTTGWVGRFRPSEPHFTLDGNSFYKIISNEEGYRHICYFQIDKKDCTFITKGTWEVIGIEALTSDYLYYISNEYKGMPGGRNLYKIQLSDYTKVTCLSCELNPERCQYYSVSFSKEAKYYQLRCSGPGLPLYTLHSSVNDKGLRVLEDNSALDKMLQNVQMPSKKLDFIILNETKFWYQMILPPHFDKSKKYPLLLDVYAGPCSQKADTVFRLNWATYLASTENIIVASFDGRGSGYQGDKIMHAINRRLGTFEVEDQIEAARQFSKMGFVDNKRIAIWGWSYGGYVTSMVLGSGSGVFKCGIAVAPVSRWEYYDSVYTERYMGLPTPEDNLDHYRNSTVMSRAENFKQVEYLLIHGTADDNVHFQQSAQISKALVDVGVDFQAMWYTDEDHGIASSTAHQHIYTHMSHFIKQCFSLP

HAEGTFTSDVSSYLEGQAAKEFIAWLVKGRGRRDFPEEVAIAEELG [SEQ ID NO:8, GLP-1 (7-37)-IP2]
stability in human plasma (active GLP, ELISA) [1]: significantly stabilized

CM1: C-terminally elongated dimeric GLP-1 fusion peptide GLP-1 (7-37)-IP2-GLP-1 (7-37) produced by construct #217
cell viability ([2]; different concentrations, CHX 10 μg/ml and 100 μg/ml): significant (p<0.01) increase of cell viability
anti-apoptotic effect ([2]; in the presence of 1 nM, cycloheximid, serumfree, p<0.01): significant anti-apoptotic effect

GLP-1 (7-37)-IP2-RR-GLP1(7-37) [SEQ ID NO:6]
stability in human plasma (active GLP, ELISA) [1]: significantly stabilized

B1: GLP-1 (7-37)-IP2-RR-GLP2 (protein)
chain: HAEGTFTSDVSSYLEGQAAKEFIAWLVKGRGRRDFPEEVAIAEELGRRHADGSFSDEMSTILDNLATRDFINWLIQTKITDKK
modifications: Description of sequence SEQ ID No 7 (ID7rec, CM2) corresponds to GLP-1(7-37)-IP2-RR-GLP2, 83 aa, 9,4 kD
notes: 83 aa, recombinant
stability in human plasma (active GLP, ELISA) [1]: significantly stabilized
